Reference: patent publication US8492515B2 (priority 2008, dated 2013)
Converted amounts (≈) assume the structure as drawn. Square brackets hold non-standard residues; d marks the D form. Peptide text beside a SMILES is read from it. Ac6c = NC1(C(=O)O)CCCCC1

Legend:
[1] = test system: extended-spectrum β-lactamase producing E. coli strain (designation 5770); test: Systemic infection model, cisplatin-pretreated CD-1 mice, blood bacterial counts; assay type: in vivo
Procedure: As peptide drugs, such as antimicrobial peptides, are predominantly cleared through the kidneys (Klootwijk et al., 1997. J. Clin. Endocrinol. Metab. 82: 3068-3073) and the kidney functions of mice are 20-fold faster than those of humans, CD-1 female mice of 15-20 g were pretreated with 18 mg/kg cisplatin for 3 days to impair kidney clearance similar to the levels observed in humans (Mathe et al., 2006. Lab. Anim. 40: 296-300) before they were challenged intraperitoneally (ip) with 10^8 CFU per g mouse of an extended-spectrum β-lactamase producing E. coli strain (designation 5770). Four, 8 and 12 hours after challenge 10 or 20 mg/kg peptide Chex1-Arg20 or 40 mg/kg imipenem (as a positive control) were administered ip to 10 mice in each group. Imipenem is a broad spectrum β-lactam antibiotic. Prior to drug administration at all three timepoints, blood was taken from the tail vein of 3-5 mice for determining blood bacterial counts. […] Antimicrobials were administered ip 4 hours after challenge 3 times in 4 hour intervals. Blood was taken immediately before antimicrobial treatments. Numbers in parentheses indicate the number of mice with <10^3 CFU/mL. Bacterial counts were determined 10 times from different dilution of blood from 5 mice in each group in each timepoints.

[2] = test system: K. pneumoniae 012-3132
From the text: (§1) To investigate the activity of the A3-APO metabolites, Chex1-Arg20 single chain unit and an Arg7-Arg20 common cleavage fragment were synthesized and studied for their ability to kill Enterobacteriaceae strains in undiluted Muller-Hinton broth, a true measure of potential clinical viability (Otvos et al., 2005. J. Med. Chem. 48: 5349-5359). The peptides of the invention were made on a CEM Liberty automated synthesizer with standard Fmoc-chemistry. The peptides were detached from the resin with the carboxyl terminus of the C-terminal Arg residue being in the form of an amino amide, —C(O)—NH2 (“Chex1-Arg20-NH2” and “Arg7-Arg20-NH2”), while still in the microwave chamber, and were purified by RP-HPLC. […] The biological studies carried out on chemically synthesized peptides in this example and succeeding examples were carried out on the C-terminal modified versions of the peptides wherein the C-terminal carboxylic acid function was in the form of an amide, —C(O)—NH2. Antibacterial growth inhibition assays were performed using sterile 96-well polypropylene plates (Nunc F96 microtiter plates) in a final volume of 100 μL as described previously (Cudic et al., 2002. Peptides 23: 271-283). The cell concentrations were estimated by measuring the ultraviolet absorbance at 600 nm and applying the formula cfu/mL=A600(3.8×10^8), where cfu is the number of colony-forming units. Briefly, 50 μL of a suspension of midlogarithmic phase bacterial cultures diluted to 5×10^5 cfu/mL in Muller-Hinton broth (MHB) was added to 50 μL of serially diluted peptides also dissolved in MHB. The final peptide concentration was 128 μg/mL. Cultures were then incubated at 37° C., 5% CO2 for 16-20 h without shaking, and growth inhibition was measured by recording the absorbance at 600 nm using a microplate reader. […] The minimal inhibitory concentration indicates the lowest peptide dose where no visible bacterial growth is detected after 16 hours incubation in full strength Muller-Hinton broth at 37° C. The peptide Chex-pyrr-Dap dimer was also included in the study. […] (Cudic et al., 2002. Peptides 23: 271-283).
(§2) Following the protocol of Example 2, minimal inhibitory concentrations of the Chex1-Arg20 peptide against selected bacteria was determined. […] A3-APO was included for comparison.

[3] = test system: P. aeruginosa ATCC 39329
From the text: as §1, §2

[4] = test system: K. pneumoniae K6
From the text: as §1, §2

[5] = test system: K. pneumoniae HK 123
From the text: as §1, §2

[6] = test system: E. coli 045-849
From the text: as §1, §2

[7] = test system: S. typhimurium S5
From the text: as §1, §2

[8] = test system: S. saprophyticus ATCC 15305
From the text: as §1, §2

[9] = test system: K. pneumoniae HK 127
From the text: as §1, §2

[10] = test system: S. typhimurium G10215
From the text: as §1, §2

[11] = test system: E. coli SOTE40
From the text: as §1, §2

[12] = test system: E. coli HK179
From the text: as §1, §2

[13] = test system: E. coli SEQ102
From the text: as §1, §2

[14] = test system: E. coli 5770
From the text: as §1, §2

[15] = test system: E. coli HK131
From the text: as §1, §2

[16] = test system: S. typhimurium ATCC 14028
From the text: as §1, §2

[17] = test system: Escherichia coli 5770; test: Mouse survival after last dose, systemic infection model without cisplatin pretreatment; assay type: in vivo
Procedure: The survival rate and the dynamics of survival of mice after the last dose of an antibacterial peptide treatment (12 hours post-infection) were measured in a mouse model of Escherichia coli 5770 systemic infection. In this particular study, the animals were not pretreated with cisplatin. Ten animals were used in each group. […] In the control (infected, non-treated) and the imipenem treated rows, the first numbers reflect the number of surviving animals on the day of assay measuring the efficacy of the Chex1-Arg20 and the second numbers are the surviving control animals on the day of the A3-APO efficacy assay.

## CC(C)C[C@H](NC(=O)[C@H](Cc1ccc(O)cc1)NC(=O)[C@@H]1CCCN1C(=O)[C@H](CCCNC(=N)N)NC(=O)[C@@H]1CCCN1C(=O)[C@H](CCCCN)NC(=O)[C@H](CC(=O)O)NC(=O)[C@@H]1CCCN1C(=O)[C@H](CCCNC(=N)N)NC(=O)C1(N)CCCCC1)C(=O)N1CCC[C@H]1C(=O)N[C@@H](CCCNC(=N)N)C(=O)N1CCC[C@H]1C(=O)N[C@@H](CCCNC(=N)N)C(=O)N1CCC[C@H]1C(=O)N1CCC[C@H]1C(=O)N[C@@H](CCCNC(=N)N)C(=O)N1CCC[C@H]1C(=O)N[C@H](C(=O)N[C@@H](CCCNC(=N)N)C(=O)O)C(C)C [Chex1-Arg20, Chex-Arg-Pro-Asp-Lys-Pro-Arg-Pro-Tyr-Leu-Pro-Arg-Pro-Arg--Pro-Pro-Arg-Pro-Val-Arg] (H-[Ac6c]RPDKPRPYLPRPRPPRPVR-OH; N-terminus and C-terminus assumed)
[1]; 10 mg/kg
  bacterial count reduction: approximately 3 log 10 units
[1]; 10 mg/kg ip, 4 h (blood taken before first dose)
  Bacterial counts in blood after inoculation/challenge: 3.2 × 10^5 CFU/mL
[1]; 10 mg/kg ip, 8 h
  Bacterial counts in blood after inoculation/challenge: 8.2 × 10^3 CFU/mL
  number of mice with <10^3 CFU/mL: 1/5
[1]; 10 mg/kg ip, 12 h
  Bacterial counts in blood after inoculation/challenge: < 1.3 × 10^4 CFU/mL
  number of mice with <10^3 CFU/mL: 1/5
[1]; 20 mg/kg
  effect on mouse blood after a lethal E. coli infection: sterilized mouse blood
[1]; 20 mg/kg ip, 4 h (blood taken before first dose)
  Bacterial counts in blood after inoculation/challenge: 3.2 × 10^5 CFU/mL
[1]; 20 mg/kg ip, 8 h
  Bacterial counts in blood after inoculation/challenge: 5.5 × 10^4 CFU/mL
  number of mice with <10^3 CFU/mL: 3/5
[1]; 20 mg/kg ip, 12 h
  Bacterial counts in blood after inoculation/challenge: < 3.7 × 10^3 CFU/mL
  number of mice with <10^3 CFU/mL: 3/5
[1]; after two doses of 20 mg/kg
  bacterial count reduction: 3.5 log 10 units
  mice having blood bacterial levels below detection limits: 60%
[2]
  MIC, K. pneumoniae 012-3132: 0.25 µg/mL (≈ 0.101 µM)
[3]
  MIC, P. aeruginosa ATCC 39329: 32 µg/mL (≈ 12.9 µM)
[4]
  MIC, K. pneumoniae K6: 2 µg/mL (≈ 0.808 µM)
[5]
  MIC, K. pneumoniae HK 123: 2 µg/mL (≈ 0.808 µM)
[6]
  MIC, E. coli 045-849: 2 µg/mL (≈ 0.808 µM)
[7]
  MIC, S. typhimurium S5: 0.5 µg/mL (≈ 0.202 µM)
[8]
  MIC, S. saprophyticus ATCC 15305: 4 µg/mL (≈ 1.62 µM)
[9]
  MIC, K. pneumoniae HK 127: 0.25 µg/mL (≈ 0.101 µM)
[10]
  MIC, S. typhimurium G10215: 0.25 µg/mL (≈ 0.101 µM)
[11]
  MIC, E. coli SOTE40: 2 µg/mL (≈ 0.808 µM)
[12]
  MIC, E. coli HK179: 1 µg/mL (≈ 0.404 µM)
[13]
  MIC, E. coli SEQ102: 1 µg/mL (≈ 0.404 µM)
[14]
  MIC, E. coli 5770: 0.5 µg/mL (≈ 0.202 µM)
[15]
  MIC, E. coli HK131: 1 µg/mL (≈ 0.404 µM)
[16]
  MIC, S. typhimurium ATCC 14028: 1 µg/mL (≈ 0.404 µM)
[17]; 2.5 mg/kg, 0 h after last dose
  number of surviving mice (10 animals each): 10
[17]; 2.5 mg/kg, 3 h after last dose
  number of surviving mice (10 animals each): 7/7
[17]; 2.5 mg/kg, 6 h after last dose
  number of surviving mice (10 animals each): 7
[17]; 2.5 mg/kg, 9 h after last dose
  number of surviving mice (10 animals each): 5
[17]; 2.5 mg/kg, 12 h after last dose
  number of surviving mice (10 animals each): 4
[17]; 5 mg/kg, 0 h after last dose
  number of surviving mice (10 animals each): 9
[17]; 5 mg/kg, 3 h after last dose
  number of surviving mice (10 animals each): 9
[17]; 5 mg/kg, 6 h after last dose
  number of surviving mice (10 animals each): 8
[17]; 5 mg/kg, 9 h after last dose
  number of surviving mice (10 animals each): 6
[17]; 5 mg/kg, 12 h after last dose
  number of surviving mice (10 animals each): 5
[17]; 10 mg/kg, 0 h after last dose
  number of surviving mice (10 animals each): 10
[17]; 10 mg/kg, 3 h after last dose
  number of surviving mice (10 animals each): 10
[17]; 10 mg/kg, 6 h after last dose
  number of surviving mice (10 animals each): 10
[17]; 10 mg/kg, 9 h after last dose
  number of surviving mice (10 animals each): 9
[17]; 10 mg/kg, 12 h after last dose
  number of surviving mice (10 animals each): 5
